Test [1] relates to SRS-A component of immunologically induced broncho-constriction. In words: Effect on the SRS-A component of immunologically induced broncho-constriction in guinea pigs. The class given is in vivo. As to conditions: guinea pig, intravenous. Here is the method:
The test was carried out according to the following procedure:
Two weeks after immunization with egg albumin, guinea pigs are prepared for bronchoconstriction determination. One hour prior to antigen challenge, each animal is dosed orally with indomethacin and chlorpheniramine. Animals are anesthetized with sodium pentobarbital, the trachea cannulated and the animal artifically respired. Arachidonic acid is administered intravenously prior to antigen challenge. The resulting bronchoconstriction is recorded by the standard lung overflow procedure and the peak increase in intratracheal pressure (mm Hg) over a 10 minute observation period is recorded. Compounds are evaluated for their ability to prevent the increased intratracheal pressure in an experimental group of animals as compared to the medicated (indomethacin+chlorpheniramine+arachidonic acid) control group. The results are expressed in terms of percent inhibition or as ED50 values (effective dose in 50% of the animals).

The target of test [2] is T1, lipoxygenase (Rattus norvegicus, UniProt P12527).
T1 construct: microsomal fraction containing lipoxygenase and cyclooxygenase; endogenous in cells; host or cells: RBL-1 (rat basophilic leukemia) cells, homogenate / microsomal fraction
T1 sequence (P12527 1-673): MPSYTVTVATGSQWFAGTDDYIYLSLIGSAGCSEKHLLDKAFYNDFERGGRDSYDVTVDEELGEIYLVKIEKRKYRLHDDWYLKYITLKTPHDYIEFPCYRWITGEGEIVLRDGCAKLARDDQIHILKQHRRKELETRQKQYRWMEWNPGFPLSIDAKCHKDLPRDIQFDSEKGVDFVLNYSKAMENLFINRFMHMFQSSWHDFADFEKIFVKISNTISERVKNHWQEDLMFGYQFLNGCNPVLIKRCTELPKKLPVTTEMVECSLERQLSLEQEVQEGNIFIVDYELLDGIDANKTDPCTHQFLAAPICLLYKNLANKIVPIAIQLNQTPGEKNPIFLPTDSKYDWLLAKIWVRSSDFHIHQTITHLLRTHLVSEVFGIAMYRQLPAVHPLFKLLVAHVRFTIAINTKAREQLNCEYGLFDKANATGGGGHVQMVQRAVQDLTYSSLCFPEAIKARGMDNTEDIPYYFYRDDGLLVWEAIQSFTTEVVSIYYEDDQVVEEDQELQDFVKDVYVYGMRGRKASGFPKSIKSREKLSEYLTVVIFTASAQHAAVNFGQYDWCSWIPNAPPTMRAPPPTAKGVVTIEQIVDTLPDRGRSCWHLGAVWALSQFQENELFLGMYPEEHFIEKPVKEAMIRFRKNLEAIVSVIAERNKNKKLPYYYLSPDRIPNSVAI
The test can be described thus: Inhibition of lipoxygenase derived from rat basophilic leukemia (RBL-1) cells, products L1 (5,12-di-HETE) and L2 (5-HETE). Type of test: biochemical. Here is the method: (§1) The primary screening test used is a determination of the inhibition of lipoxygenase and cyclooxygenase derived from rat basophilic leukemia (RBL-1) cells. The test was carried out according to the following procedure:
(§2) Single cell suspensions of RBL-1 cells are homogenized to obtain the microsomal fraction containing lipoxygenase and cyclooxygenase. Test compounds are added to the enzyme-containing homogenate for a 5 min preincubation period at 37° C. prior to the addition of ^14 C-arachidonic acid substrate. Following incubation at 37° C. for 15 min, the reaction is stopped by the addition of 2M formic acid and the enzyme-substrate products are extracted into chloroform. An aliquot of the extract is evaporated to dryness, reconstituted in ether to 1/10 original volume, spotted in thin layer chromatography plates and chromatographed. The peak areas of radioactivity representing the products are located by scanning the plates. The quantity of products formed is estimated by measuring the height of the radioactivity peaks observed on the chromatographic scans. Alternatively, the areas of radioactivity are scraped from the plate and the ^14 C quantitated by scintillation counting.

Test [3] addresses T2, cyclooxygenase (Rattus norvegicus, UniProt Q63921).
T2 construct: microsomal fraction containing lipoxygenase and cyclooxygenase; endogenous in cells; host or cells: RBL-1 (rat basophilic leukemia) cells, homogenate / microsomal fraction
T2 sequence (Q63921 27-602): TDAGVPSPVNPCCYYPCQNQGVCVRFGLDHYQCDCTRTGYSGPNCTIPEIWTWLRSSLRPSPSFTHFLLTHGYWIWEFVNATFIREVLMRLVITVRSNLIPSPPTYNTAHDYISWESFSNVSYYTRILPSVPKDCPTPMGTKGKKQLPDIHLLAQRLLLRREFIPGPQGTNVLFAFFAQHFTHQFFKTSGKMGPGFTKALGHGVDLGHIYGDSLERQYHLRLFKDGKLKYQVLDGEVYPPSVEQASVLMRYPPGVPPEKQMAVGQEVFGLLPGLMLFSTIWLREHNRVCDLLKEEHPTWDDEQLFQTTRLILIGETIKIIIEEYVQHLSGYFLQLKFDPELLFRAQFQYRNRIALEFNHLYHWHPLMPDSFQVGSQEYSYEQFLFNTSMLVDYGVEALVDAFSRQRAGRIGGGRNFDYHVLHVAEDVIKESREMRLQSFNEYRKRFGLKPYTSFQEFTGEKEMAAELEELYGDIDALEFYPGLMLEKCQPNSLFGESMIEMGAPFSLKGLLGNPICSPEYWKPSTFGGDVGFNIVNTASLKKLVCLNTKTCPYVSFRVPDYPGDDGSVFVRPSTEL
The test can be described thus: Inhibition of cyclooxygenase derived from rat basophilic leukemia (RBL-1) cells, product C1 (PGD2). Type of test: biochemical. As to conditions: for inhibition at 1 µM: dose of 1 μM, read-out: % Inhibition of cyclooxygenase (C1) formation. The method, then: as §1, §2

The mark [4] stands for this setting: read-out: % Inhibition of lipoxygenase (L1) formation.
The mark [5] stands for this setting: read-out: % Inhibition of lipoxygenase (L2) formation.

Read-outs that look alike come from different tables or passages of the source.

Take `O=C(c1ccccc1Nc1ccc(O)cc1)N1CCCCC1` [Example 1(d), 1-[2-(4-Hydroxyphenylamino)benzoyl]piperidine]: the “percent inhibition of increased intratracheal pressure (bronchoconstriction)” value in test [1] (highest soluble dose (0.1 mg/kg)) is recorded as 48%. The IC50 in test [2] (IC50 L1, L1 = 5,12-di-HETE) was 3500 nM; in test [2] (IC50 L2, L2 = 5-HETE), 600 nM; in test [3], more than 100 µM. The inhibition at 1 µM came out at 19% in test [2] (setting [4]), 64% in test [2] (setting [5]) and 0% in test [3].

For `O=C(NCc1ccccc1)c1ccccc1Nc1ccc(O)cc1` [Example 11(b), 2-(4-Hydroxyphenylamino)-N-benzylbenzamide], the ED50 in test [1] (Cavia porcellus, read-out: ED50 (effective dose in 50% of the animals)) came out at 0.61 mg/kg. Moreover, the IC50 in test [2] (IC50 L1, L1 = 5,12-di-HETE) was 70 nM; in test [2] (IC50 L2, L2 = 5-HETE), 40 nM; in test [3], more than 1 µM. Further, the inhibition at 1 µM in test [2] (setting [4]) was determined as 87%; in test [2] (setting [5]), 96%; in test [3] it was 0%.

The values are drawn from patent US4510139A, “Substituted aminobenzamides and their use as agents which inhibit lipoxygenase activity” (Sterling Drug Inc., priority 1984, dated 1985).
